Laboratory results reported in patent publication US7488712B2, “Histone deacetylase inhibitors and methods for producing the same” (Kyushu Institute of Technology, priority 2002, dated 2009).

Legend:
[1] = in vitro; details: human, Cancer-Cell-Selective Cytotoxicity, LD50 for normal cells/LD50 for cancer cells (TIG-3/HeLa)
Experimental: Human normal lung cells (TIG-3) and human uterine cancer cells (HeLa) were used to test SCOP cytotoxicity. These TIG-3 and HeLa cells were cultured in a DMEM medium comprising 10% FBS at 37° C. in the presence of 5% carbon dioxide in a steam-saturated incubator. The TIG-3 and HeLa cells were plated in 100 μl/well of the above-described medium on a 96-well microtiter plate, at a density of 30,000 cells/well and 10,000 cells/well respectively. This was then cultured for 18 hours. Test compound solution diluted with medium was added to each well and culture was continued for another 48 hours.
30 μl of supernatant from each well was transferred to another 96-well microtiter plate (A), and the remaining supernatant was discarded. 100 μl of 0.5% Triton-X/PBS was added to each well to lyse the cells, and 30 μl was then transferred to each respective well of another 96-well microtiter plate (B). 30 μl of LDH-Cytotoxic Test (Wako) substrate solution was added to each well of these 96-well microtiter plates A and B, causing a color reaction. Once the color reaction was sufficiently progressed, it was stopped by adding 60 μl of a quenching solution. Color intensity was measured at OD560 nm using a microplate reader (Softmax). [A/(A+B)] was calculated as the free-LDH ratio. […] The higher the activity value for cancer-cell-selective cell damage (LD50 for normal cells/LD50 for cancer cells), the more that cancer-cell-selective apoptosis was induced.

[2] = target: T1, human HDAC4 (Homo sapiens, UniProt P56524); assay: In vitro HDAC inhibition activity, [3H]-acetylated histone substrate, HDAC4; format: biochemical; details: Table 3
T1 construct: FLAG; made in house; host or cells: 293T cells (transient transfection, anti-FLAG immunoprecipitation, FLAG peptide elution)

[3] = Stability in serum (FCS), read out by p21 promoter inducing activity; format: in vitro ADME; details: FCS, 37° C.; activity at incubation time zero taken as 100%; FIG. 7
Experimental: The stability of SCOP 152, SCOP 304, and SCOP 402 in serum was evaluated by the method shown below: 1 μl of 10 mM SCOP 152, SCOP 304, and SCOP 402 was added to 99 μl FCS, and incubated at 37° C. Each hour, NaCl in a sufficient amount for saturation and 1 ml of ethyl acetate were added to each mixture. After extraction, from 800 μl of the ethyl acetate phase, the ethyl acetate was distilled off, and then 100 μl of DMSO was added to the residue. The resulting solution was further diluted ten times with DMSO and used to measure p21 promoter inducing activity. Activity at incubation time zero was taken as 100%, and activities were compared (FIG. 7).

[4] = system: human wild-type p21 promoter; assay: p21 promoter-inducing activity (luciferase) in MFLL-9 cells; format: cell-based

T1 sequence (O15379 whole entry partner): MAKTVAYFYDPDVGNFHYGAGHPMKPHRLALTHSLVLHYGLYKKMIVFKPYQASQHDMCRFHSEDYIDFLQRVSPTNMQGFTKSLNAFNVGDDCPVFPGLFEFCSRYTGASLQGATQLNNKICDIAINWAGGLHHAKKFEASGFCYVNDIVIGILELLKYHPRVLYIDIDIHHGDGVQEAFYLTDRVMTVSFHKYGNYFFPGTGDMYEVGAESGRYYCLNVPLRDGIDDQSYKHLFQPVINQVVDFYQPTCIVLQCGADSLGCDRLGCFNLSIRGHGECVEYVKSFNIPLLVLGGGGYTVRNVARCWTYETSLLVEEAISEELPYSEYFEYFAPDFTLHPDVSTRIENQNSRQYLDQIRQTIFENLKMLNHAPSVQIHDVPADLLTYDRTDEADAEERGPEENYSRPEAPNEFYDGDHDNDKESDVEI
T1 sequence (P56524 whole entry): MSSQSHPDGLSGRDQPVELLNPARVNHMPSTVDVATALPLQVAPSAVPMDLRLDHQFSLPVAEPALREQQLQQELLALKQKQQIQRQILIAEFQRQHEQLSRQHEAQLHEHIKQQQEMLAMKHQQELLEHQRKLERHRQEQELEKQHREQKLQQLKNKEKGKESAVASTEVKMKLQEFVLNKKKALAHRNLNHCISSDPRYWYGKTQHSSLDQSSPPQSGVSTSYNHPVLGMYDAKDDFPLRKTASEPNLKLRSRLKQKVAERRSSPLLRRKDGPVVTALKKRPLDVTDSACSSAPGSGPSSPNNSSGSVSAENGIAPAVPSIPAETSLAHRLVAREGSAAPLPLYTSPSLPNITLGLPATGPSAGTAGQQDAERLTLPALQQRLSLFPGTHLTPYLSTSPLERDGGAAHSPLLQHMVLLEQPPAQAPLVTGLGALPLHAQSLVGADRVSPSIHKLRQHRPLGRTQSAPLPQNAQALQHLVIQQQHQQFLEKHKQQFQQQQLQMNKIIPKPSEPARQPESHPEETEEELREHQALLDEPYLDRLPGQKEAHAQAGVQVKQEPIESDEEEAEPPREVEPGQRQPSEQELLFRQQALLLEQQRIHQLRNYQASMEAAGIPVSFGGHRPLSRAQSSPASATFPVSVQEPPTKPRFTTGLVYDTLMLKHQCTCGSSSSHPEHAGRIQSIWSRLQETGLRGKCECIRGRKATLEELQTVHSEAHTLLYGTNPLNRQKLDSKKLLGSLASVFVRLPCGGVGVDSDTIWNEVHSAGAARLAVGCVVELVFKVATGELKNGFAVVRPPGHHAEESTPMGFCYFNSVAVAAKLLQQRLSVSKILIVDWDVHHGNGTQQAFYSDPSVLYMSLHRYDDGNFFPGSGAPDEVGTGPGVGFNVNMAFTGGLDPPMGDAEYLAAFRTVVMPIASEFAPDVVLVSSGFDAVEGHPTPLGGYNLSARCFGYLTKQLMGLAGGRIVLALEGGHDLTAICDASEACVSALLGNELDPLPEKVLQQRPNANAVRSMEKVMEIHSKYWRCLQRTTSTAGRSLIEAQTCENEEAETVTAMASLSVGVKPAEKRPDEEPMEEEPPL

CC[C@H](C)[C@@H]1NC(=O)[C@@H](Cc2ccc(OC)cc2)NC(=O)[C@H](CCCCCSSc2ccncc2)NC(=O)[C@H]2CCCN2C1=O [SCOP 402, cyclo(-L-Am7(S4Py)-D-Tyr(Me)-L-Ile-D-Pro-)]
selectivity ratio at 48 h ([1]; with DTT (/DTT)): 27.8 | selectivity ratio at 48 h ([1]; without DTT): 11.4 | IC50 ([2]; hybrid with DTT (/DTT)): 1.12 nM | IC50 ([2]; hybrid, without DTT): 68.3 nM | Retention of activity in serum [3]: stably retain activity in serum for longer than SCOP 152 | EC50 ([4]; Table 3, hybrid with DTT (/DTT)): 0.47 µM | EC50 ([4]; Table 3, hybrid, without DTT): 1.31 µM
